In the supplement of paper PMC10307832:

Key:
Assay in all cases: relative viability (nuclei count vs DMSO), 5 days (fraction); higher = more cells survive
CUDC-101 + Pemetrexed = compound: C#Cc1cccc(Nc2ncnc3cc(OC)c(OCCCCCCC(=O)NO)cc23)c1 [CUDC-101] + Nc1nc2[nH]cc(CCc3ccc(C(=O)N[C@@H](CCC(=O)O)C(=O)O)cc3)c2c(=O)[nH]1 [Pemetrexed] (partner 0.2 µM)
In short: (§1)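 One day after seeding in 1536-well plates, lung cancer cell lines were dosed by pin tool. Dosing was either single-drug or a fixed anchor-drug dose plus five library-drug doses (not always all listed) in √10 steps. After 5 days, nuclei were stained in one fix-and-stain step and counted on 4× images, and relative viability is the nuclei count of treated wells over that of vehicle wells, given as the median of duplicate plates.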

[1] = compound: C1=CC=C2C(=C1)N=C(S2)C(C#N)C3=NC(=NC=C3)NCCC4=CN=CC=C4 + Cc1cc(Nc2cc(N3CCN(C)CC3)nc(Sc3ccc(NC(=O)C4CC4)cc3)n2)n[nH]1 [Tozasertib] (partner 0.1 µM)
In short: as §1

Vandetanib + Luminespib = compound: COc1cc2/c(=N/c3ccc(Br)cc3F)nc[nH]c2cc1OCC1CCN(C)CC1 [Vandetanib] + CCNC(=O)c1noc(-c2cc(C(C)C)c(O)cc2O)c1-c1ccc(CN2CCOCC2)cc1 [Luminespib] (partner 0.01 µM)
In short: as §1

Vandetanib + Pemetrexed = compound: COc1cc2/c(=N/c3ccc(Br)cc3F)nc[nH]c2cc1OCC1CCN(C)CC1 [Vandetanib] + Nc1nc2[nH]cc(CCc3ccc(C(=O)N[C@@H](CCC(=O)O)C(=O)O)cc3)c2c(=O)[nH]1 [Pemetrexed] (partner 0.2 µM)
In short: as §1

| Cell Line | relative viability (CUDC-101 + Pemetrexed; first compound 0.01 µM) | relative viability (CUDC-101 + Pemetrexed; first compound 0.03162 µM) | relative viability (CUDC-101 + Pemetrexed; first compound 0.1 µM) | relative viability (CUDC-101 + Pemetrexed; first compound 0.3162 µM) | relative viability (CUDC-101 + Pemetrexed; first compound 1 µM) | relative viability ([1]; first compound 0.005 µM) | relative viability ([1]; first compound 0.01581 µM) | relative viability ([1]; first compound 0.05 µM) | relative viability ([1]; first compound 0.1581 µM) | relative viability ([1]; first compound 0.5 µM) | relative viability (Vandetanib + Luminespib; first compound 0.02 µM) | relative viability (Vandetanib + Luminespib; first compound 0.06325 µM) | relative viability (Vandetanib + Luminespib; first compound 0.2 µM) | relative viability (Vandetanib + Luminespib; first compound 0.6325 µM) | relative viability (Vandetanib + Luminespib; first compound 2 µM) | relative viability (Vandetanib + Pemetrexed; first compound 0.02 µM) | relative viability (Vandetanib + Pemetrexed; first compound 0.06325 µM) | relative viability (Vandetanib + Pemetrexed; first compound 0.2 µM) | relative viability (Vandetanib + Pemetrexed; first compound 0.6325 µM) | relative viability (Vandetanib + Pemetrexed; first compound 2 µM) |
| --- | --- | --- | --- | --- | --- | --- | --- | --- | --- | --- | --- | --- | --- | --- | --- | --- | --- | --- | --- | --- |
| PC-3 [JPC-3] | 1.12 | 1.06 | 0.842 | 0.439 | 0.393 | 0.661 | 0.927 | 0.866 | 0.791 | 0.706 | 0.724 | 0.661 | 0.639 | 0.745 | 0.524 | 1.21 | 0.937 | 0.824 | 0.65 | 0.374 |
| PC-14 | 0.154 | 0.129 | 0.156 | 0.138 | 0.152 | 0.573 | 0.667 | 0.554 | 0.631 | 0.45 | 0.234 | 0.152 | 0.184 | 0.13 | 0.131 | 0.133 | 0.115 | 0.123 | 0.179 | 0.165 |
| RERF-LC-KJ | 0.476 | 0.493 | 0.438 | 0.42 | 0.357 | 0.535 | 0.549 | 0.507 | 0.472 | 0.413 | 1.1 | 1.21 | 1.29 | 1.14 | 1.12 | 0.46 | 0.459 | 0.497 | 0.418 | 0.46 |
| SK-LU-1 | 0.948 | 1.12 | 0.948 | 0.965 | 0.947 | 0.293 | 0.344 | 0.33 | 0.309 | 0.299 | 0.202 | 0.204 | 0.156 | 0.196 | 0.217 | 0.971 | 0.787 | 1.01 | 1.07 | 1.04 |
| SK-MES-1 | 0.896 | 0.946 | 0.922 | 0.972 | 0.724 | 0.909 | 0.978 | 0.838 | 0.886 | 0.511 | 0.788 | 0.506 | 0.758 | 0.594 | 0.388 | 1.01 | 0.882 | 0.961 | 0.77 | 0.93 |
| SW 900 | 0.502 | 0.429 | 0.452 | 0.454 | 0.448 | 0.452 | 0.489 | 0.5 | 0.489 | 0.362 | 0.19 | 0.17 | 0.195 | 0.204 | 0.175 | 0.472 | 0.464 | – | 0.483 | 0.464 |
| SW 1573 | 0.86 | 0.97 | 1.08 | 0.96 | 0.459 | 0.174 | 0.179 | – | 0.175 | 0.156 | 0.383 | 0.227 | 0.415 | 0.24 | 0.18 | 0.899 | 0.841 | – | 0.909 | 0.887 |
